From US11912695B2, “Benzodiazepine derivatives as RSV inhibitors” (ENANTA PHARMACEUTICALS, INC., priority 2019, dated 2024)

Columns and labels:
[1] = tested on: Human RSV-A (“Long” strain); experiment: RSV-A assay (CPE, ATPlite) in Hep-2 cells; assay type: cell-based; settings: human respiratory syncytial virus, 120 h, MOI 0.1, 5-day incubation, ATPlite readout
Description: Hep-2 cells, (originally derived from tumors grown in irradiated-cortisonised weanling rats that had been injected with epidermoid carcinoma tissue from a person's larynx, but later found to be indistinguishable from HeLa cells by PCR DNA analysis), were used for the culturing of genotype A, “Long” strain RSV. Flasks were inoculated with RSV and viral stocks were collected once cytopathic effect (CPE) was greater than 90%. Viral stocks in 25% sucrose media were snap frozen using liquid nitrogen to increase viral stability. Viral stock titers were quantified by tissue culture infectious dose 50% (TCID50) using 8,000 cells per well and 3-fold viral dilutions across a 96-well plate, cultured for 4 days. Viral stock titers were also quantified by a plaque forming unit assay, as described elsewhere.
Following extensive parameter testing, the final assay is run as follows: Hep-2 cells are seeded into the inner 60 wells of a 96-well plate at 8,000 cells per well in a volume of 50 μL using Growth Media (DMEM without phenol red, 1% L-Glut, 1% Penn/Strep, 1% nonessential amino acids, 10% heat-inactivated FBS). 2-fold serial dilutions of control and test compounds are added to the wells in duplicate in a total volume of 25 μL. Viral stock is then added to the wells at a multiplicity of infection (MOI) of 0.1 in a volume of 25 μL, bringing the total volume of each well to 100 μL. The MOI is calculated using the PFU/mL, or TCID50 if unavailable. Each 96-well plate has a control column of 6 wells with cells and virus but no compound (negative control, max CPE), a column with cells but no compound or virus (positive control, minimum CPE), and a column with no cells or virus or compound (background plate/reagent control). The control wells with cells but no virus are given an additional 25 μL of growth media containing an equal quantity of sucrose as those wells receiving the viral stock in order to keep consistent in media and volume conditions. The outer wells of the plate are filled with 125 μL of moat media (DMEM, 1% Penn/Strep) to act as a thermal and evaporative moat around the test wells. Following a 5-day incubation period, the plates are read using ATPlite (50 μL added per well), which quantifies the amount of ATP (a measure of cell health) present in each well. Assay plates are read using the Envision luminometer. In parallel, cytotoxicity is examined on an additional 96-well plate treated in an identical manner, but substituting the 25 μL of viral stock for 25 μL of growth media. […] EC50 ranges are as follows: A<0.4 μM; B 0.4-0.8 μM; C>0.8 μM.

[2] = tested on: Human RSV-B (genotype B, strain 9320); experiment: RSV-B assay (qPCR or ATPlite) in A549 cells; assay type: cell-based; settings: human respiratory syncytial virus, 144 h, strain 9320, MOI 0.5, 6 days post infection, qPCR or ATPlite readout
Description: Hep-2 cells, (originally derived from tumors grown in irradiated-cortisonised weanling rats that had been injected with epidermoid carcinoma tissue from a person's larynx, but later found to be indistinguishable from HeLa cells by PCR DNA analysis), were used for the culturing of genotype B, strain 9320. Flasks were inoculated with RSV-B and viral stocks were collected once cytopathic effect (CPE) was greater than 90%. Viral stocks in 25% sucrose media were snap frozen using liquid nitrogen to increase viral stability. Viral stock titers were quantified by tissue culture infectious dose 50% (TCID50) using 8,000 cells per well and 5-fold viral dilutions across a 96-well plate, cultured for 4 days. Viral stock titers were also quantified by a plaque forming unit assay, as described elsewhere.
The assay is run as follows: A549 cells (originally derived through explant culture from a person's carcinomatous lung tissue) are seeded into the inner 60 wells of a 96-well plate at 3,000 cells per well in a volume of 50 μL using A549 growth media (F-12K Media, 1% Penn/Strep, 1% nonessential amino acids, 10% heat-inactivated FBS). 2-fold serial dilutions of control and test compounds are added to the wells in duplicate in a total volume of 25 μL. Viral stock is then added to the wells at a multiplicity of infection (MOI) of 0.5 in a volume of 25 μL, bringing the total volume of each well to 100 μL. The MOI is calculated using the PFU/mL, or TCID50 if unavailable. Each 96-well plate has a control column of 6 wells with cells and virus but no compound (negative control, max CPE), a column with cells but no compound or virus (positive control, minimum CPE), and a column with no cells or virus or compound (background plate/reagent control). The control wells with cells but no virus are given an additional 25 μL of growth media containing an equal quantity of sucrose as those wells receiving the viral stock in order to keep consistent in media and volume conditions. The outer wells of the plate are filled with 125 μL of moat media (DMEM, 1% Penn/Strep) to act as a thermal and evaporative moat around the test wells. 6 days post infection, the plates are read using qPCR or ATP lite (50 μL added per well), which quantifies the amount of ATP (a measure of cell health) present in each well. Assay plates treated with APTlite are read using the Envision luminometer. […] EC50 ranges are as follows: A<0.4 μM; B 0.4-0.8 μM; C>0.8 μM.

Row | SMILES | EC50 [1] [nM] | EC50 [2] [nM]
1 | Cc1ncc(-c2cc(C(F)(F)F)cnc2-c2nnc(NC3N=C(c4ccccc4)c4ccccc4NC3=O)o2)cn1 (centres unmarked) [Example 1] | < 400 | < 400
2 | O=C1Nc2ccccc2C(c2ccccc2)=NC1Nc1nnc(-c2ncc(C(F)(F)F)cc2-c2cncnc2)o1 (centres unmarked) [Example 2] | > 800 | > 800
3 | COc1ncc(-c2cc(C(F)(F)F)cnc2-c2nnc(NC3N=C(c4ccccc4)c4ccccc4NC3=O)o2)cn1 (centres unmarked) [Example 3] | 400 to 800 | 400 to 800
4 | N#Cc1ncc(-c2cc(C(F)(F)F)cnc2-c2nnc(NC3N=C(c4ccccc4)c4ccccc4NC3=O)o2)cn1 (centres unmarked) [Example 5] | > 800 | 
5 | O=C1Nc2ccccc2C(c2ccccc2)=NC1Nc1nnc(-c2ncc(C(F)(F)F)cc2-c2cnc(CF)nc2)o1 (centres unmarked) [Example 6] | < 400 | 
6 | O=C1Nc2ccccc2C(c2ccccc2)=NC1Nc1nnc(-c2ncc(C(F)(F)F)cc2-c2cnc(C3CC3)nc2)o1 (centres unmarked) [Example 7] | < 400 | < 400
7 | CCc1ncc(-c2cc(C(F)(F)F)cnc2-c2nnc(NC3N=C(c4ccccc4)c4ccccc4NC3=O)o2)cn1 (centres unmarked) [Example 8] | < 400 | < 400
8 | O=C1Nc2ccccc2C(c2ccccc2)=NC1Nc1nnc(-c2ncc(C(F)(F)F)cc2-c2cnc(CO)nc2)o1 (centres unmarked) [Example 9] | > 800 | > 800
9 | O=C1Nc2ccccc2C(c2ccccc2)=NC1Nc1nnc(-c2ncc(C(F)(F)F)cc2-c2cnc(C(F)(F)F)nc2)o1 (centres unmarked) [Example 10] | > 800 | > 800
10 | CC(F)(F)c1ncc(-c2cc(C(F)(F)F)cnc2-c2nnc(NC3N=C(c4ccccc4)c4ccccc4NC3=O)o2)cn1 (centres unmarked) [Example 11] | > 800 | 400 to 800
11 | CC(C)(F)c1ncc(-c2cc(C(F)(F)F)cnc2-c2nnc(NC3N=C(c4ccccc4)c4ccccc4NC3=O)o2)cn1 (centres unmarked) [Example 12] | > 800 | > 800
12 | O=C1Nc2ccccc2C(c2ccccc2)=NC1Nc1nnc(-c2ncc(C(F)(F)F)cc2-c2cnc(C3CCC3)nc2)o1 (centres unmarked) [Example 13] | 400 to 800 | < 400
13 | O=C1Nc2ccccc2C(c2ccccc2)=NC1Nc1nnc(-c2ncc(C(F)(F)F)cc2-c2cnc(Cl)nc2)o1 (centres unmarked) [Example 14, 3-((5-(3-(2-chloropyrimidin-5-yl)-5-(trifluoromethyl)pyridin-2-yl)-1,3,4-oxadiazol-2-yl)amino)-5-phenyl-1,3-dihydro-2H-benzo[e][1,4]diazepin-2-one] | > 800 | > 800
14 | CCc1ncc(-c2cccnc2-c2nnc(NC3N=C(c4ccccc4)c4ccccc4NC3=O)o2)cn1 (centres unmarked) [Example 15] | > 800 | < 400
15 | O=C1Nc2ccccc2C(c2ccccc2)=NC1Nc1nnc(-c2ncccc2-c2cnc(C3CC3)nc2)o1 (centres unmarked) [Example 16] | 400 to 800 | < 400
16 | O=C1Nc2ccccc2C(c2ccccc2)=NC1Nc1nnc(-c2ncc(C(F)(F)F)cc2-c2cnc(F)nc2)o1 (centres unmarked) [Example 17] | > 800 | > 800
17 | C=Cc1ncc(-c2cc(C(F)(F)F)cnc2-c2nnc(NC3N=C(c4ccccc4)c4ccccc4NC3=O)o2)cn1 (centres unmarked) [Example 18] | 400 to 800 | < 400
18 | C#Cc1ncc(-c2cc(C(F)(F)F)cnc2-c2nnc(NC3N=C(c4ccccc4)c4ccccc4NC3=O)o2)cn1 (centres unmarked) [Example 19] | > 800 | 400 to 800
19 | O=C1Nc2ccccc2C(c2ccccc2)=NC1Nc1nnc(-c2ncc(C(F)(F)F)cc2-c2cnc(NC3CC3)nc2)o1 (centres unmarked) [Example 20] | 400 to 800 | < 400

Row | SMILES | EC50 [1] [nM] | EC50 [2] [nM]
20 | Cc1ncc(-c2nc(C(F)(F)F)ccc2-c2nnc(N[C@H]3N=C(c4ccccc4)c4ccccc4NC3=O)o2)cn1 [Example 21] | 400 to 800 | < 400
21 | O=C1Nc2ccccc2C(c2ccccc2)=N[C@@H]1Nc1nnc(-c2ccc(C(F)(F)F)nc2-c2cnc(C3CC3)nc2)o1 [Example 22] | 400 to 800 | < 400
22 | O=C1Nc2ccccc2C(c2ccccc2)=NC1Nc1nnc(-c2cccnc2-c2cnc(C3CC3)nc2)o1 (centres unmarked) [Example 23] | > 800 | < 400
23 | O=C1Nc2c(F)cccc2C(c2ccccc2)=N[C@@H]1Nc1nnc(-c2ncc(C(F)(F)F)cc2-c2cnc(C3CC3)nc2)o1 [Example 24] | < 400 | < 400
24 | O=C1Nc2ccccc2C(c2ccccc2)=N[C@@H]1Nc1nnc(-c2ncc(C(F)(F)F)cc2-c2cnc(C3CC3)nc2)o1 [Example 25] | < 400 | < 400
25 | Cc1ncc(-c2cc(C(F)(F)F)cnc2-c2nnc(N[C@H]3N=C(c4ccccc4)c4ccccc4NC3=O)o2)cn1 [Example 26] | < 400 | < 400
26 | Cc1ncc(-c2cc(C(F)(F)F)cnc2-c2nnc(N[C@H]3N=C(c4ccccc4)c4cccc(F)c4NC3=O)o2)cn1 [Example 27] | < 400 | < 400
27 | CCc1ncc(-c2cc(C(F)(F)F)cnc2-c2nnc(N[C@H]3N=C(c4ccccc4)c4cccc(F)c4NC3=O)o2)cn1 [Example 28] | < 400 | < 400
28 | CCc1ncc(-c2cc(C(F)(F)F)cnc2-c2nnc(N[C@H]3N=C(c4ccccc4)c4ccccc4NC3=O)o2)cn1 [Example 29] | < 400 | < 400
29 | CCc1ncc(-c2sc(C(F)(F)F)nc2-c2nnc(N[C@H]3N=C(c4ccccc4)c4cccc(F)c4NC3=O)o2)cn1 [Example 32] | < 400 | < 400
30 | Cc1ncc(-c2sc(C(F)(F)F)nc2-c2nnc(NC3N=C(c4ccccc4)c4ccccc4NC3=O)o2)cn1 (centres unmarked) [Example 33] | < 400 | < 400
31 | O=C1Nc2ccccc2C(c2ccccc2)=NC1Nc1nnc(-c2nc(C(F)(F)F)sc2-c2cnc(C3CC3)nc2)o1 (centres unmarked) [Example 34] | < 400 | < 400
32 | CCc1ncc(-c2sc(C(F)(F)F)nc2-c2nnc(NC3N=C(c4ccccc4)c4ccccc4NC3=O)o2)cn1 (centres unmarked) [Example 35] | < 400 | < 400
33 | CCc1ncc(-c2sc(C)nc2-c2nnc(N[C@H]3N=C(c4ccccc4)c4cccc(F)c4NC3=O)o2)cn1 [Example 36] | < 400 | < 400
34 | CCc1ncc(-c2sc(C)nc2-c2nnc(N[C@@H]3N=C(c4ccccc4)c4cccc(F)c4NC3=O)o2)cn1 [Example 37] | < 400 | < 400
35 | Cc1ncc(-c2sc(C)nc2-c2nnc(N[C@@H]3N=C(c4ccccc4)c4cccc(F)c4NC3=O)o2)cn1 [Example 38] | < 400 | < 400
36 | Cc1ncc(-c2sc(C)nc2-c2nnc(N[C@H]3N=C(c4ccccc4)c4cccc(F)c4NC3=O)o2)cn1 [Example 39] | < 400 | < 400
37 | Cc1nc(-c2nnc(N[C@@H]3N=C(c4ccccc4)c4cccc(F)c4NC3=O)o2)c(-c2cnc(C3CC3)nc2)s1 [Example 40] | < 400 | < 400
38 | Cc1nc(-c2nnc(N[C@H]3N=C(c4ccccc4)c4cccc(F)c4NC3=O)o2)c(-c2cnc(C3CC3)nc2)s1 [Example 41] | < 400 | < 400
